Entries after “also recorded” stand apart in the source; their conditions may differ.
Legend:
bovine retinal pericytes = experiment: HG-induced apoptosis (DNA fragmentation) in cultured retinal pericytes; assay type: cell-based; settings: for reversal of apoptosis / effects of HG once established: agent added during LG conditions after HG exposure; for effect on HG-induced apoptosis: pericytes in high glucose (20 mM), agent present with HG
Method: Cell apoptosis will be evaluated by measurement of DNA fragmentation using cell death detection kit (ROCHE diagnostics). Approximately 15000 cells are seeded in 96-well plates in DMEM with 20% FBS for 18 hours. BRP are starved for 24 hours and then stimulated with either 5.5 or 20 mM of d-glucose for an addition 72 hours. DNA fragmentation is measured in accordance to manufacture's protocol. Increases in caspase 3+9 cleared will also be measured using immunoblot analysis. Measurement of NF-κB activity in cultured cells. Activity of NF-κB will be assessed by a microwell colorimetric assay using the TransAM NFκB transcription factor assay kit (Active Motif, Carlsbad, Calif.) following manufacturer's instruction (Renard et al., Nucleic Acids Res 29, E21 (2001)).
Various potential mechanisms for the metabolic memory process in retinal pericytes were explored in vitro. Cells were culture in high glucose (HG, 20 mM glucose) for about 72 hours, and then for another 24 hours in low glucose (LG, 5.6 mM glucose). This mimics a period of hyperglycemia followed by normoglycemia, a common pattern in diabetics, who often have a period of poorly controlled glycemia before finding a regime that provides better control, thus providing a cultured cell model of metabolic memory.
(§1) The role of p38 MAPK was studied further using SB203580, a specific inhibitor for p38 MAPK a and […] and adenoviral vector of dominant negative p38 MAPKα and β isoforms (Wang et al., J Biol Chem 273, 2161-8 (1998)), either at the same time as starting HG condition or after 3 days of HG when cells are returning to LG condition. In addition, the effects of the antioxidant N-acetylcysteine (NAC) were also evaluated. Activation of p38 MAPK β and δ was evaluated by immunoblotting with anti-phospho p38 MAPK α and δ antibodies.

p38 MAPK = experiment: HG-induced p38 MAPK activation in pericytes (immunoblot); assay type: cell-based, bovine; settings: high glucose
Text: In addition to PKC activation, the effect of HG on p38 MAPK activation was also characterized, since PKC δ activation induced by HG can activate p38 MAPK in aortic smooth muscle and renal mesangial cells. […] HG was able to increase the phosphorylation of p38 MAPK by 2-fold in pericytes after three days of exposure (FIG. 4) in parallel with PKC δ activation and increases in apoptosis; no effects on JNK were observed.
as §1

SHP-1 = experiment: HG-induced SHP-1 expression in pericytes (Western blot); assay type: cell-based; settings: high glucose
Method: (§2) Protein tyrosine phosphatases (PTPs) play a key role in the regulation of receptor tyrosine kinases such as the PDGF-β receptor. Thus, experiments were performed to determine the pathway by which glycemic memory prevented tyrosine phosphorylation of the PDGF-Beta receptor. Cultured pericytes were exposed to either low glucose conditions (˜5.5 mM glucose, LG), high glucose conditions (˜20 mM glucose, HG), or high glucose followed by low glucose (˜20 mM, ±5.5 mM glucose, HG+LG) for 72 hours per exposure. Pericytes were lysed, and lysates were run on an SDS/PAGE gel, then transferred to nitrocellulose for immunoblotting, according to already published procedures. Commercially available antibodies for SHP-1 and another protein tyrosine phosphatase, PTP-1B were used to probe the blot, according to manufacturer's instructions.

PDGF-Beta receptor = experiment: PDGF-BB-induced tyrosine phosphorylation of PDGF-β receptor in HG-treated pericytes (Western blot); assay type: cell-based; settings: high glucose
Method: as §2
Cultured pericytes were treated with high glucose (˜20 mM glucose) and subsequently prepared for Western blot analyses as described in Example 2. An antibody directed against phosphorylated PDGF-Beta receptor was used to assess the effects of the HG treatment on receptor phosphorylation levels.

Compound	reversal of apoptosis / effects of HG once established (bovine retinal pericytes)	effect on HG-induced apoptosis (bovine retinal pericytes)	prevention of HG induced p38 MAPK activation (p38 MAPK)	effect on HG-induced expression of SHP-1 (SHP-1)	effect on HG-induced abrogation of PDGF-BB actions (PDGF-Beta receptor)	effect on HG-prevented tyrosine phosphorylation of PDGFR-β induced by PDGF (PDGF-Beta receptor; FIG. 16)
CC(=O)N[C@@H](CS)C(=O)O [NAC, N-acetylcysteine]	not totally effective	partly able to prevent				
CN(C)C[C@@H]1CCn2cc(c3ccccc32)C2=C(C(=O)NC2=O)c2cn(c3ccccc23)CCO1 [RBX]		ineffective	ineffective			
C[S+]([O-])c1ccc(-c2nc(-c3ccncc3)c(-c3ccc(F)cc3)[nH]2)cc1 (stereo not shown) [SB203580]	not totally effective	partly able to prevent; also recorded: prevented apoptosis		prevented	abrogated PDGF-BB actions; also recorded: prevented	reversed
dominant negative form of SHP-1: dominant negative form of SHP-1 (Dubois et al., Nat. Med. 2006); C453S ablates phosphatase activity		reduces HG-induced apoptosis, even in the presence of PDGF				
